Measurements from patent US10258621B2, “Methods and compositions for treating HIV-related disorders” (CHDI Foundation, Inc., priority 2014, dated 2019).
“Also recorded” adds a separate entry of the source.

What was measured:
KMO = target: T1, KMO (Homo sapiens, UniProt O15229); assay: KMO inhibition: L-kynurenine hydroxylation to 3OH-KYN monitored by LC/MS; assay type: biochemical; conditions: 10 μM compound
T1 construct: GST; His; expressed in transfected cells; host or cells: CHO (CHO-GST HIS KMO cell line)
Description: A generalized procedure for monitoring L-Kynurenine (KYN) hydroxylation to form product 3-Hydroxy-Kynurenine (3OH—KYN) by LC/MS is described below. Product is quantified by multiple reaction monitoring using MS.
IC50's are calculated using automated fitting algorithm (A+ Analysis)
A method of monitoring L-Kynurenine (KYN) hydroxylation to form product 3-Hydroxy-Kynurenine (3OH—KYN) by LC/MS is described below. Product is quantified by multiple reaction monitoring.
• Compound: Stock concentrations: 10 mM in 100% DMSO • Enzyme: KMO enzyme prepared at Evotec via mitochondria isolation from CHO-GST HIS KMO cells • Substrate: L-Kynurenine (Sigma: Cat#K3750) • [stock concentration: 10 mM in 100 mM potassium phosphate buffer, pH 7.4]
IC50's are calculated using automated fitting algorithm (A+ Analysis).
A method of monitoring L-Kynurenine (KYN) hydroxylation to form 3-Hydroxy-Kynurenine (3OH—KYN) by LC/MS is described. Product is quantified by multiple reaction monitoring (MRM method).

[1] = tested on: KP metabolites (KYN, KYNA, AA, 3-HK) via KMO inhibition; assay: Microdialysis after PO dosing at various dosage levels: KP metabolites in striatum extracellular space; assay type: in vivo; conditions: PO 3, 10 or 30 mg/kg; mouse striatum microdialysis
Description: (§1) Animals were anesthetized using isoflurane (2%, 800 mL/min O2). Bupivacain/epinephrine was used for local analgesia, finadyne or carprophen for peri-/post-operative analgesia. The animals were placed in a stereotaxic frame (Kopf instruments, USA). I-shaped probes (membrane: polyacrylonitrile, 3 mm exposed surface; Brainlink, the Netherlands) were inserted in the striatum. After surgery, animals were kept individually in cages; provided food and water ad libitum.
(§2) Experiments were performed one day after surgery. On the day of the experiment, the probes of the animals were connected with flexible PEEK tubing to a microperfusion pump (Harvard PHD 2000 Syringe pump, Holliston, Mass. or similar). The I-shaped microdialysis probes were perfused with aCSF containing 147 mM NaCl, 3.0 mM KCl, 1.2 mM CaCl2 and 1.2 mM MgCl2, at a flow rate of 1.5 μL/min. Microdialysis samples were collected at 20-minute intervals by an automated fraction collector (820 Microsampler, Univentor, Malta or similar) into mini-vials already containing 10 μL 0.02 M formic acid (FA) and 0.04% ascorbic acid in ultrapurified H2O. At t=−30 min vehicle or KMO inhibitor were be administered, to ensure central and peripheral inhibition of KMO at the time of administration of kynurenine. At t=0 vehicle or kynurenine were administered. Microdialysate samples were collected for 240 min after administration of kynurenine. All the dialysis samples were stored at −80° C. awaiting their analysis. Dialysate levels of any or all of KP metabolites KYN, KYNA, 3-OH—KYN, AA and QA were quantified by LC-MS/MS at by Brains On-Line. After the experiment, the mice were sacrificed and terminal brain (striatum+cortex), liver, kidney, plasma and CSF samples were collected for analysis of KP metabolites. Levels of KP metabolites were measured in terminal brain (striatum+cortex), liver, kidney, plasma and CSF samples at Brains On-Line. Finally, levels of kynurenine and KMO inhibitors in dose formulation samples were quantified by Brains On-Line.
A method of examining the modulation of KYN, KYNA, AA, and 3-HK via KMO inhibition with Compound 6 in striatum extracellular space is disclosed. […] Following the microdialysis procedure described herein, dialysate levels of KP metabolites KYN, KYNA, 3-HK, and AA were quantified by LC-MS/MS at by Brains On-Line.

KP metabolite KYNA = assay: Microdialysis after PO dosing in WT and HD (Q175_KI homozygous) animals: KYNA in striatum; assay type: in vivo, mouse; conditions: PO 3 mg/kg or 10 mg/kg
Description: as §1
Experiments were performed one day after surgery. On the day of the experiment, the probes of the animals were connected with flexible PEEK tubing to a microperfusion pump (Harvard PHD 2000 Syringe pump, Holliston, Mass. or similar). […] Dialysate levels of any or all of KP metabolites KYN, KYNA, 3-OH—KYN, AA and QA were quantified by LC-MS/MS at by Brains On-Line. […] Levels of KP metabolites were measured in terminal brain (striatum+cortex), liver, kidney, plasma and CSF samples at Brains On-Line. Finally, levels of kynurenine and KMO inhibitors in dose formulation samples were quantified by Brains On-Line.
A method of examining the modulation of KP metabolites in HD animals similar to WT controls is disclosed. […] Following the microdialysis procedure described herein, dialysate levels of KP metabolite KYNA was quantified by LC-MS/MS at by Brains On-Line. […]

[2] = tested on: extracellular levels of KYN, KYNA, 3-OH-KYN, AA and QA in the striatum; assay: Microdialysis after PO dosing of kynurenine, Compound 6 or both: extracellular KP metabolites in striatum; assay type: in vivo, adult male WT mice; conditions: 30 mg/kg p.o., dosed alone; WT mice
Description: as §1, §2
A method of examining the pharmacodynamic effects of kynurenine (30 mg/kg, p.o.) and Compound 6 (30 mg/kg, p.o.) on extracellular levels of KYN, KYNA, 3-OH—KYN, AA and QA in the striatum (STR) of adult male WT mice either co-dosed or dosed independently is disclosed.
Furthermore, PO administration of Compound 6 blocks toxic metabolites 3-OH—KYN (see FIG. 10) and QA (see FIG. 11), whereas kynurenine dosing increases them, due to kynurenine catabolism in mice brain.

[3] = target: NMDA receptor NR2A subunit (Homo sapiens, UniProt Q12879); conditions: NMDA receptor agonist; cited from earlier work
[4] = target: NMDA receptor NR2B subunit (Homo sapiens, UniProt Q13224); conditions: NMDA receptor agonist; cited from earlier work
Sequence of NMDA receptor NR2B subunit (Q13224 27-1484, other chains not shown): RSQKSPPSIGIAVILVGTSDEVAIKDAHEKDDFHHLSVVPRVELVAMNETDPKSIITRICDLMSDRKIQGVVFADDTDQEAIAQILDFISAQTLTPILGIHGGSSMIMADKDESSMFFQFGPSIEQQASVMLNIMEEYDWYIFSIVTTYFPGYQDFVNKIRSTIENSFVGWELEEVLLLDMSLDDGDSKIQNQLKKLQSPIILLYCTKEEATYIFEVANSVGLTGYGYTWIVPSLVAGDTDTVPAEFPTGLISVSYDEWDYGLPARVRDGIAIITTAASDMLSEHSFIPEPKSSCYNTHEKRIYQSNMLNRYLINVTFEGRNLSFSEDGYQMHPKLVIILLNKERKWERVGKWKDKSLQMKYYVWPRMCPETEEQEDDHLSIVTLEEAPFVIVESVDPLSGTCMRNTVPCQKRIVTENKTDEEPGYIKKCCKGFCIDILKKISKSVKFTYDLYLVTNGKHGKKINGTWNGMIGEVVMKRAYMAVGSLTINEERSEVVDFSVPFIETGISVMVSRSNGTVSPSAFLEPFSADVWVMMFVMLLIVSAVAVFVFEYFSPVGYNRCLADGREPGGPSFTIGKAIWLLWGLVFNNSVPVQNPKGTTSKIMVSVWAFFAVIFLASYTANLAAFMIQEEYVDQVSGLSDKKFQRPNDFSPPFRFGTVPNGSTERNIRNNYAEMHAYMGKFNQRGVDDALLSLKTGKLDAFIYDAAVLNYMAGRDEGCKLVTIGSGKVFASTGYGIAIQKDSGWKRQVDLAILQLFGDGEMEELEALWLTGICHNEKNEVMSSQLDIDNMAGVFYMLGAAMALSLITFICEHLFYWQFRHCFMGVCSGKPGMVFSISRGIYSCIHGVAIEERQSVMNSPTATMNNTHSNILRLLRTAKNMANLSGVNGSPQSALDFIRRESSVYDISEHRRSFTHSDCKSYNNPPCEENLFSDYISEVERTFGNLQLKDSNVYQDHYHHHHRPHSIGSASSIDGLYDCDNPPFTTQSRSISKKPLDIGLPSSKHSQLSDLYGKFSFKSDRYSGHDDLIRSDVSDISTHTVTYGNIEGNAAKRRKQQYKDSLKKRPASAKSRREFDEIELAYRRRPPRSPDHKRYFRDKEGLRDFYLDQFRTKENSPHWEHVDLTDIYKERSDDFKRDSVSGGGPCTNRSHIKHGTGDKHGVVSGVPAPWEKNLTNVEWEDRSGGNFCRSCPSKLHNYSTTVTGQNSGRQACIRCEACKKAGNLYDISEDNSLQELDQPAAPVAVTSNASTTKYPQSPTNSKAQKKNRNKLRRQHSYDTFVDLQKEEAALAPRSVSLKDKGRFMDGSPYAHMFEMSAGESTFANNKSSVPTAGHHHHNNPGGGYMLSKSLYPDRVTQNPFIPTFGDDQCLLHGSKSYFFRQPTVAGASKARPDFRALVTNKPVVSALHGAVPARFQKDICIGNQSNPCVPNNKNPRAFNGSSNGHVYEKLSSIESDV

T1 sequence (O15229 whole entry): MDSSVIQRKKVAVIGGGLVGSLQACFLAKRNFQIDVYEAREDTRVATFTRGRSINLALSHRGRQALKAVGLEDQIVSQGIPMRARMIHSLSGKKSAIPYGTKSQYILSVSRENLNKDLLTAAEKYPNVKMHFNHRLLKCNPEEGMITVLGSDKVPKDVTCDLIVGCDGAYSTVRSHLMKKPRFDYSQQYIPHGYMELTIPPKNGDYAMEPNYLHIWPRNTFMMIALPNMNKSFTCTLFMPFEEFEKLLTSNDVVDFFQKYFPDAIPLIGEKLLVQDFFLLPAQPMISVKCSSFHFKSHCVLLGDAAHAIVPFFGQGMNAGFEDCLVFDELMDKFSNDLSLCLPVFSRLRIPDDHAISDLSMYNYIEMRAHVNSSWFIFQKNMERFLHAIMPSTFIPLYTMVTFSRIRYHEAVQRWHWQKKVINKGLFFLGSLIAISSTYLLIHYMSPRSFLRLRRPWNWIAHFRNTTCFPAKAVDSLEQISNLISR
Sequence of NMDA receptor NR2A subunit (Q12879 23-1464, other chains not shown): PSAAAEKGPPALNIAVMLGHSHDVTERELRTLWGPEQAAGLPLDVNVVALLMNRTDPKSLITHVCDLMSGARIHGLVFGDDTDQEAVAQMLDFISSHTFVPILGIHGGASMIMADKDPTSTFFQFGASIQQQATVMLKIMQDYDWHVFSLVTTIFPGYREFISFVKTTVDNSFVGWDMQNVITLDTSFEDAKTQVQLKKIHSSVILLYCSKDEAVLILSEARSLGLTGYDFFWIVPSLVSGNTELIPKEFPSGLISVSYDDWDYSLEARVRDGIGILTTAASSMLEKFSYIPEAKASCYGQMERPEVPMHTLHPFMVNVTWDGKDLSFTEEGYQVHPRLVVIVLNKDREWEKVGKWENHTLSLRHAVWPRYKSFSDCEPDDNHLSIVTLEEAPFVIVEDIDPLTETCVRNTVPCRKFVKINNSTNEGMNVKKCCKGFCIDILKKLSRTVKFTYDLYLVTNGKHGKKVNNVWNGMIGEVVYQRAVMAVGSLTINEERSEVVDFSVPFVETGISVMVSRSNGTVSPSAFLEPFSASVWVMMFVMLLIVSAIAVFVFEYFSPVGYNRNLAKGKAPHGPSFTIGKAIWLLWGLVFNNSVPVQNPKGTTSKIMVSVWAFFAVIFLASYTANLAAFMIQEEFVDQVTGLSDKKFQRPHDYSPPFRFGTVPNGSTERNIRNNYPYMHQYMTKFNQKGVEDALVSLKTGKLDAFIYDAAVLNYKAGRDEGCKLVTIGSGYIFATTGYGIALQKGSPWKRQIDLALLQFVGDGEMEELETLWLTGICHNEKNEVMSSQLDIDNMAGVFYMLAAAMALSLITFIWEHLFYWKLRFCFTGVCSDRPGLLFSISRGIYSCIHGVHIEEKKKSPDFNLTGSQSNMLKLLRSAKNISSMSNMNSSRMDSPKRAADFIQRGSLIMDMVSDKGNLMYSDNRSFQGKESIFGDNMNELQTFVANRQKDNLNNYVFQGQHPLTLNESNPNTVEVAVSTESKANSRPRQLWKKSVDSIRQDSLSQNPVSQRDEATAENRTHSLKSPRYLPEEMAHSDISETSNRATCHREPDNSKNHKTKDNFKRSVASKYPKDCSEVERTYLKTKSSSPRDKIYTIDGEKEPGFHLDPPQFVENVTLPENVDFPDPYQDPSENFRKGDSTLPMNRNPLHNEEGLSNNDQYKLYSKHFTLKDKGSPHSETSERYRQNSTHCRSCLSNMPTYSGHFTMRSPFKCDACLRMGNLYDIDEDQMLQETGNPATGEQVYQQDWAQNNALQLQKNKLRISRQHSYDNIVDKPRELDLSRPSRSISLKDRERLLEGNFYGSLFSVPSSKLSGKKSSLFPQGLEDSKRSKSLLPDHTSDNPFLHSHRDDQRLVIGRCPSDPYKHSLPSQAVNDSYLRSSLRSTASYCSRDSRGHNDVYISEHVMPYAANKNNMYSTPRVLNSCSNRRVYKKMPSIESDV

For `CC[C@H](C)Oc1ccc(-c2cc(C(=O)O)ncn2)cc1Cl` [Compound 4, (S)-6-(4-sec-butoxy-3-chlorophenyl)pyrimidine-4-carboxylic acid], the inhibition at 10 µM (KMO) was 100%.

Work on `CC[C@@H](C)Oc1ccc(-c2cc(C(=O)O)ncn2)cc1Cl` [Compound 5, (R)-6-(4-sec-butoxy-3-chlorophenyl)pyrimidine-4-carboxylic acid] yielded an inhibition at 10 µM (KMO) of 100%.

In the case of `O=C(O)c1cc(-c2ccc(OC3CC3)c(Cl)c2)ncn1` [Compound 6, 6-(3-chloro-4-cyclopropoxyphenyl)pyrimidine-4-carboxylic acid], the inhibition at 10 µM (KMO) is reported as 100%, the “3-HK in striatum extracellular space” value [1] is reported as “insufficient modulation; also recorded: little or no effect” and the “AA in striatum extracellular space” value [1] is reported as “dose dependent increases”. The “KYN in striatum extracellular space” value [1] was “dose dependent increases”, the “KYNA in striatum extracellular space” value [1] was “dose dependent increases” and the “KP metabolite KYNA in striatum, HD mice” value (KP metabolite KYNA; Q175_KI homozygous (HD) mice) was “dose dependent increase; also recorded: increases”. For the same compound, the “KP metabolite KYNA in striatum, WT mice” value (KP metabolite KYNA; wild type mice) was “dose dependent increase; also recorded: increases”, the 3-OH-KYN in striatum [2] was “blocks” and the AA in striatum [2] was “increases”. For the same compound, the KYN in striatum [2] was “increases”, the KYNA in striatum [2] was “increases” and the QA in striatum [2] was “blocks”.

For `O=C(O)c1cccnc1C(=O)O` [QUIN, quinolinic acid], the “affinity for NR2A subunit” value [3] is given as 7 to 10 µmol and the “affinity for NR2B subunit” value [4] is given as 100 µmol.

For `Nc1ccccc1C(=O)CC(N)C(=O)O` (stereo not drawn) [kynurenine, reference compound], the 3-OH-KYN in striatum [2] was “increases”, the AA in striatum [2] was “little or no effect” and the KYN in striatum [2] was “little or no effect”. The KYNA in striatum [2] was “little or no effect” and the QA in striatum [2] was “increases”.
